Results on 72 compounds are retold here after patent US20120165304A1, “6,7,8,9-Tetrahydro-5H-1,4,7,10a-tetraaza-cyclohept[f]indene derivatives, pharmaceutical compositions containing these compounds, their use and processes for preparing them” (BOEHRINGER INGELHEIM INTERNATIONAL GMBH, priority 2008, published 2012).

Each structure is given as a SMILES string.

The target of the assay is human 5-HT2C receptor (Homo sapiens, UniProt P28335, I156V/I160V/N158S). Nature of the assay: cell-based.
Sequence of human 5-HT2C receptor (P28335 33-458 I156V/N158S/I160V limits assumed): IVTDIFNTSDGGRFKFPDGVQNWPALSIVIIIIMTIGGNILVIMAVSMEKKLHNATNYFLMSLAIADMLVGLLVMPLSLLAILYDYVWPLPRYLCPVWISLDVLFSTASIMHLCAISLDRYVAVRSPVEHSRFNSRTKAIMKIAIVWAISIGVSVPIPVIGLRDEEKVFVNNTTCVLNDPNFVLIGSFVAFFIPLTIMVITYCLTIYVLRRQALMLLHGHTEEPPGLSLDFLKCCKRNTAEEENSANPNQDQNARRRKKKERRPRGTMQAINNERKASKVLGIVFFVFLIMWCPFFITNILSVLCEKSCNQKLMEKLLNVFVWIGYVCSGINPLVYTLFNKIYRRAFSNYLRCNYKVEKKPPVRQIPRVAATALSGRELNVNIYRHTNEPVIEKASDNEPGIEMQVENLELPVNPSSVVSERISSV
As a reminder, the EC50 is the midpoint of the concentration-response curve. Higher therefore signals a less potent agent. Compound `CCN1CCCC1CNC(=O)C1CN(c2c3c(nc4ccnn24)CCNCC3)C1` (stereo not drawn) [Example 37.90] yielded an EC50 of 12 nM. As to `c1ccc2c(c1)OCCN2c1c2c(nc3ccnn13)CCNCC2` [Example 1.39], the midpoint of the response, the EC50, lay at 2580 nM.

On to `O=C(C1CN(c2c3c(nc4ccnn24)CCNCC3)C1)N1CCc2ccccc2C1` [Example 31.60], for which the EC50 turned out to be 57 nM.

The compound `CCC(C)(C)NC(=O)C1CN(c2c3c(nc4ccnn24)CCNCC3)C1` [Example 37.54] displayed an EC50 of 118 nM. Next, `O=C(C1CN(c2c3c(nc4ccnn24)CCNCC3)C1)N1CCN(c2ccccc2F)CC1` [Example 37.40]: 12 nM; `O=C(C1CN(c2c3c(nc4ccnn24)CCNCC3)C1)N1CCCC1` [Example 31.64]: 199 nM; `FC(F)(F)c1cccnc1OC1CN(c2c3c(nc4ccnn24)CCNCC3)C1` [Example 20.12]: 959 nM. The result for `CN1CCc2nc3ccnn3c(N3CC(C(=O)N4CCNCC4)C3)c2CC1` [Example 36.57] reads 287 nM; that for `O=C(NCCC1CCCC1)C1CN(c2c3c(nc4ccnn24)CCNCC3)C1` [Example 37.62], 10 nM; that for `CC(CC1CCCCC1)NC(=O)C1CN(c2c3c(nc4ccnn24)CCNCC3)C1` (stereo not drawn) [Example 37.108], 72 nM. Next, `c1cc2nc3c(c(N4CCCC4)n2n1)CCNCC3` [Example 7.1]: 764 nM; `O=C(NC1CCC1)C1CN(c2c3c(nc4ccnn24)CCNCC3)C1` [Example 37.92]: 161 nM; `c1ccc(CCc2cnn3c(N4CCC4)c4c(nc23)CCNCC4)nc1` [Example 6, 10-Azetidin-1-yl-3-(2-pyridin-2-yl-ethyl)-6,7,8,9-tetrahydro-5H-1,4,7,10a-tetraaza-cyclohepta[f]indene]: 156 nM. The compound `c1ccc(CN2CCN(c3c4c(nc5ccnn35)CCNCC4)CC2)cc1` [Example 1.1] registered an EC50 of 108 nM. Next, `CCC(CC)CNC(=O)C1CN(c2c3c(nc4ccnn24)CCNCC3)C1` [Example 37.88]: 36 nM.

As for `CC(=O)N(C)C1CCN(C(=O)C2CN(c3c4c(nc5ccnn35)CCN(C)CC4)C2)CC1` [Example 36.31], a half-maximal effect (EC50) was put at 187 nM. Next, `CN(Cc1ccn(C)n1)C(=O)C1CN(c2c3c(nc4ccnn24)CCNCC3)C1` [Example 31.54]: 107 nM.

`O=C(C1CN(c2c3c(nc4ccnn24)CCNCC3)C1)N1CCC1` [Example 31.7] gave an EC50 of 3300 nM. Take `O=C(C1CN(c2c3c(nc4ccnn24)CCNCC3)C1)N1CC2CC(c3ccccc3)(C2)C1` [Example 31.232]: the midpoint of the response, the EC50, lay at 95 nM. Next, `Cc1cnn2c(N3CC(C(=O)N4CCc5ccc(C(F)(F)F)cc54)C3)c3c(nc12)CCNCC3` [Example 31.246]: 266 nM. On to `CC#CCN(CC(C)C)C(=O)C1CN(c2c3c(nc4ccnn24)CCNCC3)C1` [Example 31.104], for which the EC50 came out at 215 nM. With `CN1CCc2nc3ccnn3c(N3CC(C(=O)N4CCC(F)CC4)C3)c2CC1` [Example 36.29], the half-maximal effective concentration (EC50) was found to be 279 nM. The result for `Cc1cccc(CN(C)C(=O)C2CN(c3c4c(nc5ccnn35)CCNCC4)C2)n1` [Example 31.208] reads 62 nM; that for `CN1CCc2nc3ccnn3c(N3CC(C(=O)N4CCCN(C)CC4)C3)c2CC1` [Example 36.12], 73 nM. The compound `CC1(C(=O)N2CCC(c3ccccc3F)CC2)CN(c2c3c(nc4ccnn24)CCNCC3)C1` [Example 32.6] showed an EC50 of 2780 nM. The result for `Cn1c(C2CN(c3c4c(nc5ccnn35)CCNCC4)C2)nc2ccc(Cl)cc21` [Example 34.6] reads 65 nM; that for `CCN1CCN(C(=O)C2CN(c3c4c(nc5ccnn35)CCNCC4)C2)CC1=O` [Example 37.65], 5 nM.

Consider `CN1CCc2nc3ccnn3c(N3CC(C(=O)NC4CC(C)(C)NC(C)(C)C4)C3)c2CC1` [Example 36.9], for which the midpoint of the response, the EC50, lay at 379 nM. For `O=C(C1CN(c2c3c(nc4c(Br)cnn24)CCNCC3)C1)N1CCc2ccccc2C1` [Example 31.136], the response was half-maximal at 78 nM (EC50).

Compound `Fc1ccc(OCC2CN(c3c4c(nc5ccnn35)CCNCC4)C2)cc1Cl` [Example 15.11] showed an EC50 of 20 nM. `c1cnn(CC2CN(c3c4c(nc5ccnn35)CCNCC4)C2)c1` [Example 17, 10-(3-Pyrazol-1-ylmethyl-azetidin-1-yl)-6,7,8,9-tetrahydro-5H-1,4,7,10a-tetraaza-cyclohepta[f]indene]: the EC50 worked out at 15 nM. The result for `O=C(C1CN(c2c3c(nc4ccnn24)CCNCC3)C1)N1CCC(c2ccc(C(F)(F)F)cc2)CC1` [Example 31.109] reads 83 nM; that for `CN1CCc2nc3ccnn3c(N3CC(C(=O)NCC4CCN(C)CC4)C3)c2CC1` [Example 36.3], 108 nM. `O=C(C1CN(c2c3c(nc4ccnn24)CCNCC3)C1)N1CCCC2(CCc3ccccc32)C1` (stereo not drawn) [Example 31.173] displayed an EC50 of 440 nM.

`COc1ccc(C(O)C2CN(c3c4c(nc5ccnn35)CCNCC4)C2)cc1` (stereo not drawn) [Example 19, (4-Methoxy-phenyl)-[1-(6,7,8,9-tetrahydro-5H-1,4,7,10a-tetraaza-cyclohepta[f]inden-10-yl)-azetidin-3-yl]-methanol] returned an EC50 of 139 nM. The result for `O=C(C1CN(c2c3c(nc4ccnn24)CCNCC3)C1)N1CCC(Cc2ccc(Cl)cc2)C1` (stereo not drawn) [Example 31.120] reads 103 nM; that for `O=C(C1CN(c2c3c(nc4ccnn24)CCNCC3)C1)N1CCN(C2CCCC2)CC1` [Example 37.11], 2 nM. The result for `Fc1cccc(F)c1OC1CN(c2c3c(nc4ccnn24)CCNCC3)C1` [Example 35.41] reads 9 nM. Compound `Cn1c(C2CN(c3c4c(nc5ccnn35)CCNCC4)C2)nc2cc(C#N)ccc21` [Example 34.18] registered an EC50 of 388 nM. As to `CC(=O)N(C)C1CCN(C(=O)C2CN(c3c4c(nc5ccnn35)CCNCC4)C2)CC1` [Example 37.30], the EC50 amounted to 8 nM. As to `O=C(C1CN(c2c3c(nc4ccnn24)CCNCC3)C1)N1CC[C@H](c2ccccc2)C1` [Example 31.224], the EC50 is 45 nM. Consider `CC(C)CCN(C)C(=O)C1CN(c2c3c(nc4ccnn24)CCNCC3)C1` [Example 31.74], for which the EC50 was 175 nM. The result for `FC(F)(F)c1cccc(OC2CN(c3c4c(nc5ccnn35)CCNCC4)C2)c1` [Example 1.7] reads 42 nM; that for `COc1cc(Cl)ccc1OC1CN(c2c3c(nc4ccnn24)CCNCC3)C1` [Example 35.21], 75 nM; that for `O=C(NCC1CCOC1)C1CN(c2c3c(nc4ccnn24)CCNCC3)C1` (stereo not drawn) [Example 37.61], 64 nM. The result for `CN1CCc2nc3ccnn3c(N3CC(C(=O)NC4CC5CCC(C4)N5C)C3)c2CC1` (stereo not drawn) [Example 36.10] reads 374 nM; that for `O=C(NC1CCCCC1)C1CN(c2c3c(nc4ccnn24)CCNCC3)C1` [Example 37.71], 114 nM; that for `COC[C@H]1CCN1c1c2c(nc3ccnn13)CCNCC2` [Example 8.1], 75 nM.

As to `O=C(C1CN(c2c3c(nc4ccnn24)CCNCC3)C1)N1CCC(c2ccccc2)C1` (stereo not drawn) [Example 31.98], the EC50 was 45 nM. The result for `NC1CCN(C(=O)C2CN(c3c4c(nc5ccnn35)CCNCC4)C2)CC1` [Example 37.42] reads 2 nM.

The compound `Fc1cc(Cl)ccc1OCC1CN(c2c3c(nc4ccnn24)CCNCC3)C1` [Example 15.12] gave an EC50 of 9 nM. Next, `CC(c1ccccc1)n1c(C2CN(c3c4c(nc5ccnn35)CCNCC4)C2)nc2cc(Cl)ccc21` (stereo not drawn) [Example 34.37]: 2380 nM; `CN1CCc2nc3ccnn3c(N3CC(C(=O)N4CCC(C(F)(F)F)C4)C3)c2CC1` (stereo not drawn) [Example 36.27]: 89 nM. `O=C(CC1CN(c2c3c(nc4ccnn24)CCNCC3)C1)N1CCc2cc(F)ccc21` [Example 33.2] returned a half-maximal effective concentration (EC50) of 20 nM. `O=C(N1CCOCC1)C1(c2ccccc2)CCN(c2c3c(nc4ccnn24)CCNCC3)CC1` [Example 1.54] displayed an EC50 of 1640 nM. Next, `CC1(C)CN(C(=O)C2CN(c3c4c(nc5ccnn35)CCNCC4)C2)Cc2ccccc21` [Example 31.177]: 623 nM; `O=C(C1CN(c2c3c(nc4ccnn24)CCNCC3)C1)N1CCN(c2ccccc2)CC1` [Example 37.34]: 6 nM; `O=C(NCC1CCCCC1)C1CN(c2c3c(nc4ccnn24)CCNCC3)C1` [Example 31.225]: 111 nM. Next, `CC(C)CC(=O)N1CCN(C(=O)C2CN(c3c4c(nc5ccnn35)CCNCC4)C2)CC1` [Example 37.57]: 27 nM; `CN1CCc2nc3ccnn3c(N3CC(C(=O)NCCC4CCCC4)C3)c2CC1` [Example 36.46]: 143 nM.

`Cn1c(C2CN(c3c4c(nc5ccnn35)CCNCC4)C2)nc2ccccc21` [Example 34.1]: the response was half-maximal at 53 nM (EC50). As to `c1ccc(C2OCCN(c3c4c(nc5ccnn35)CCNCC4)C2c2ccccc2)cc1` (stereo not drawn) [Example 1.40], the EC50 was 1290 nM. Next, `CN1CCc2nc3ccnn3c(N3CC(C(=O)N4CCN(C)C(=O)C4)C3)c2CC1` [Example 36.19]: 257 nM; `c1ccc(O[C@H]2CCN(c3c4c(nc5ccnn35)CCNCC4)C2)cc1` [Example 1.46]: 582 nM; `O=C(C1CN(c2c3c(nc4ccnn24)CCNCC3)C1)N1CCCC1c1nccs1` (stereo not drawn) [Example 31.52]: 199 nM. Turning to `CN(Cc1cccc(Cl)c1Cl)C(=O)C1CN(c2c3c(nc4ccnn24)CCNCC3)C1` [Example 31.168], a half-maximal effect (EC50) was put at 107 nM. Next, `CCN(C)C(=O)C1CN(c2c3c(nc4ccnn24)CCNCC3)C1` [Example 31.4]: 685 nM.

Compound `c1cc2nc3c(c(N4CC(OCC5CC5)C4)n2n1)CCNCC3` [Example 20.3] gave an EC50 of 469 nM. The result for `CN1CCC(CNC(=O)C2CN(c3c4c(nc5ccnn35)CCNCC4)C2)CC1` [Example 37.89] reads 19 nM; that for `CO[C@H]1CCN(C(=O)C2CN(c3c4c(nc5ccnn35)CCN(C)CC4)C2)C1` [Example 36.41], 337 nM. Next, `NC1CCN(C(=O)C2CN(c3c4c(nc5ccnn35)CCNCC4)C2)C1` (stereo not drawn) [Example 37.16]: 5 nM; `COc1cc(F)ccc1OCC1CN(c2c3c(nc4ccnn24)CCNCC3)C1` [Example 15.8]: 6 nM.
